The record followed here is patent US20100267561A1, “HERBICIDAL PYRIDAZINONE DERIVATIVES” (priority 2007, published 2010).

For the first test, the system named is velvetleaf (Abutilon theophrasti). Nature of the test: Test A pre-/postemergence plant response. In kind it is in vivo. The following applies: Postemergence, 31 g ai/ha; 0 to 100 scale, 0 no effect, 100 complete control. In short, it runs like this:
(§1)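 Both pre- and postemergence treatment given concurrently; postemergence seedlings measured 2–10 cm at the one- to two-leaf stage. Visual injury, 0–100 scale versus untreated, at ~10 days.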
On to `Cn1ncc(O)c(-n2nc(-c3ccc(Cl)cc3)cc2C2CC2)c1=O` [Compound 45], for which the “Plant response rating, Velvetleaf” value worked out at 0.

As for `Cc1cc(-c2ccc(Cl)cc2)nn1-c1c(OC(=O)c2ccccc2Cl)cnn(C)c1=O` [Compound 38], the “Plant response rating, Velvetleaf” value was found to be 0.

As for `Cc1ccc(-c2ccc(Cl)cc2)cc1-c1c(O)cnn(C)c1=O` [Compound 46], the “Plant response rating, Velvetleaf” value was found to be 0.

In the case of `CCCC(=O)Oc1cnn(C)c(=O)c1-n1nc(-c2ccc(Cl)cc2)cc1C` [Compound 56], the “Plant response rating, Velvetleaf” value was determined as 0.

The test is the same for the next values; noted with them: Postemergence, 125 g ai/ha; 0 to 100 scale, 0 no effect, 100 complete control.
Take `Cn1ncc(O)c(-n2nc(-c3ccc(Cl)cc3)cc2C2CC2)c1=O` [Compound 45]: the “Plant response rating, Velvetleaf” value worked out at 0.

As for `Cc1cc(-c2ccc(Cl)cc2)nn1-c1c(OC(=O)c2ccccc2Cl)cnn(C)c1=O` [Compound 38], the “Plant response rating, Velvetleaf” value stood at 0.

As to `Cc1ccc(-c2ccc(Cl)cc2)cc1-c1c(O)cnn(C)c1=O` [Compound 46], the “Plant response rating, Velvetleaf” value is listed as 0.

As to `CCCC(=O)Oc1cnn(C)c(=O)c1-n1nc(-c2ccc(Cl)cc2)cc1C` [Compound 56], the “Plant response rating, Velvetleaf” value is recorded as 0.

The same test, now with this note: Preemergence, 31 g ai/ha; 0 to 100 scale, 0 is no effect, 100 is complete control.
For `Cn1ncc(O)c(-n2nc(-c3ccc(Cl)cc3)cc2C2CC2)c1=O` [Compound 45], the “Plant response rating, Velvetleaf” value is recorded as 0.

For `Cc1cc(-c2ccc(Cl)cc2)nn1-c1c(OC(=O)c2ccccc2Cl)cnn(C)c1=O` [Compound 38], the “Plant response rating, Velvetleaf” value was 0.

Consider `Cc1ccc(-c2ccc(Cl)cc2)cc1-c1c(O)cnn(C)c1=O` [Compound 46], for which the “Plant response rating, Velvetleaf” value is listed as 0.

In the case of `CCCC(=O)Oc1cnn(C)c(=O)c1-n1nc(-c2ccc(Cl)cc2)cc1C` [Compound 56], the “Plant response rating, Velvetleaf” value is given as 0.

Still in this test, the particulars now being: Preemergence, 125 g ai/ha; 0 to 100 scale (0 no effect, 100 complete control).
For the compound `Cn1ncc(O)c(-n2nc(-c3ccc(Cl)cc3)cc2C2CC2)c1=O` [Compound 45], the “Plant response rating, Velvetleaf” value was 0.

As to `Cc1cc(-c2ccc(Cl)cc2)nn1-c1c(OC(=O)c2ccccc2Cl)cnn(C)c1=O` [Compound 38], the “Plant response rating, Velvetleaf” value was determined as 0.

For `Cc1ccc(-c2ccc(Cl)cc2)cc1-c1c(O)cnn(C)c1=O` [Compound 46], the “Plant response rating, Velvetleaf” value is 0.

Turning to `CCCC(=O)Oc1cnn(C)c(=O)c1-n1nc(-c2ccc(Cl)cc2)cc1C` [Compound 56], the “Plant response rating, Velvetleaf” value came to 0.

Another test deals with wheat (Triticum aestivum). Put plainly: Test A pre-/postemergence plant response. The following applies: Postemergence, 31 g ai/ha; 0 to 100 scale, 0 no effect, 100 complete control. In kind it is in vivo. An outline of the steps: as §1
For `Cn1ncc(O)c(-n2nc(-c3ccc(Cl)cc3)cc2C2CC2)c1=O` [Compound 45], the “Plant response rating, Wheat” value amounted to 70.

`Cc1cc(-c2ccc(Cl)cc2)nn1-c1c(OC(=O)c2ccccc2Cl)cnn(C)c1=O` [Compound 38]: the “Plant response rating, Wheat” value was determined as 0.

For `Cc1ccc(-c2ccc(Cl)cc2)cc1-c1c(O)cnn(C)c1=O` [Compound 46], the “Plant response rating, Wheat” value came to 0.

In the case of `CCCC(=O)Oc1cnn(C)c(=O)c1-n1nc(-c2ccc(Cl)cc2)cc1C` [Compound 56], the “Plant response rating, Wheat” value turned out to be 70.

Staying with this test, now noted: Postemergence, 125 g ai/ha; 0 to 100 scale, 0 no effect, 100 complete control.
Consider `Cn1ncc(O)c(-n2nc(-c3ccc(Cl)cc3)cc2C2CC2)c1=O` [Compound 45], for which the “Plant response rating, Wheat” value is recorded as 90.

For `Cc1cc(-c2ccc(Cl)cc2)nn1-c1c(OC(=O)c2ccccc2Cl)cnn(C)c1=O` [Compound 38], the “Plant response rating, Wheat” value turned out to be 60.

`Cc1ccc(-c2ccc(Cl)cc2)cc1-c1c(O)cnn(C)c1=O` [Compound 46]: the “Plant response rating, Wheat” value was 30.

As for `CCCC(=O)Oc1cnn(C)c(=O)c1-n1nc(-c2ccc(Cl)cc2)cc1C` [Compound 56], the “Plant response rating, Wheat” value came to 80.

Staying with this test, now noted: Preemergence, 31 g ai/ha; 0 to 100 scale, 0 is no effect, 100 is complete control.
Regarding `Cn1ncc(O)c(-n2nc(-c3ccc(Cl)cc3)cc2C2CC2)c1=O` [Compound 45], the “Plant response rating, Wheat” value is 50.

Turning to `Cc1cc(-c2ccc(Cl)cc2)nn1-c1c(OC(=O)c2ccccc2Cl)cnn(C)c1=O` [Compound 38], the “Plant response rating, Wheat” value was 20.

As for `Cc1ccc(-c2ccc(Cl)cc2)cc1-c1c(O)cnn(C)c1=O` [Compound 46], the “Plant response rating, Wheat” value turned out to be 0.

`CCCC(=O)Oc1cnn(C)c(=O)c1-n1nc(-c2ccc(Cl)cc2)cc1C` [Compound 56]: the “Plant response rating, Wheat” value was 20.

The same test, now with this note: Preemergence, 125 g ai/ha; 0 to 100 scale (0 no effect, 100 complete control).
For the compound `Cn1ncc(O)c(-n2nc(-c3ccc(Cl)cc3)cc2C2CC2)c1=O` [Compound 45], the “Plant response rating, Wheat” value came out at 80.

As for `Cc1cc(-c2ccc(Cl)cc2)nn1-c1c(OC(=O)c2ccccc2Cl)cnn(C)c1=O` [Compound 38], the “Plant response rating, Wheat” value is listed as 60.

Regarding `Cc1ccc(-c2ccc(Cl)cc2)cc1-c1c(O)cnn(C)c1=O` [Compound 46], the “Plant response rating, Wheat” value was found to be 50.

As for `CCCC(=O)Oc1cnn(C)c(=O)c1-n1nc(-c2ccc(Cl)cc2)cc1C` [Compound 56], the “Plant response rating, Wheat” value worked out at 80.

Another test concerns giant foxtail (Setaria faberi). Nature of the test: Test A pre-/postemergence plant response. The format is in vivo. Particulars: Postemergence, 31 g ai/ha; 0 to 100 scale, 0 no effect, 100 complete control. An outline of the steps: as §1
`Cn1ncc(O)c(-n2nc(-c3ccc(Cl)cc3)cc2C2CC2)c1=O` [Compound 45]: the “Plant response rating, Foxtail, Giant” value is given as 90.

For the compound `Cc1cc(-c2ccc(Cl)cc2)nn1-c1c(OC(=O)c2ccccc2Cl)cnn(C)c1=O` [Compound 38], the “Plant response rating, Foxtail, Giant” value is recorded as 80.

For `Cc1ccc(-c2ccc(Cl)cc2)cc1-c1c(O)cnn(C)c1=O` [Compound 46], the “Plant response rating, Foxtail, Giant” value is 20.

For `CCCC(=O)Oc1cnn(C)c(=O)c1-n1nc(-c2ccc(Cl)cc2)cc1C` [Compound 56], the “Plant response rating, Foxtail, Giant” value was found to be 100.

The test is the same for the next values; noted with them: Postemergence, 125 g ai/ha; 0 to 100 scale, 0 no effect, 100 complete control.
`Cn1ncc(O)c(-n2nc(-c3ccc(Cl)cc3)cc2C2CC2)c1=O` [Compound 45]: the “Plant response rating, Foxtail, Giant” value stood at 100.

`Cc1cc(-c2ccc(Cl)cc2)nn1-c1c(OC(=O)c2ccccc2Cl)cnn(C)c1=O` [Compound 38]: the “Plant response rating, Foxtail, Giant” value amounted to 90.

Turning to `Cc1ccc(-c2ccc(Cl)cc2)cc1-c1c(O)cnn(C)c1=O` [Compound 46], the “Plant response rating, Foxtail, Giant” value is given as 60.

For `CCCC(=O)Oc1cnn(C)c(=O)c1-n1nc(-c2ccc(Cl)cc2)cc1C` [Compound 56], the “Plant response rating, Foxtail, Giant” value amounted to 100.

Still in this test, the particulars now being: Preemergence, 31 g ai/ha; 0 to 100 scale, 0 is no effect, 100 is complete control.
Regarding `Cn1ncc(O)c(-n2nc(-c3ccc(Cl)cc3)cc2C2CC2)c1=O` [Compound 45], the “Plant response rating, Foxtail, Giant” value worked out at 90.

As for `Cc1cc(-c2ccc(Cl)cc2)nn1-c1c(OC(=O)c2ccccc2Cl)cnn(C)c1=O` [Compound 38], the “Plant response rating, Foxtail, Giant” value was 90.

Take `Cc1ccc(-c2ccc(Cl)cc2)cc1-c1c(O)cnn(C)c1=O` [Compound 46]: the “Plant response rating, Foxtail, Giant” value is 50.

Take `CCCC(=O)Oc1cnn(C)c(=O)c1-n1nc(-c2ccc(Cl)cc2)cc1C` [Compound 56]: the “Plant response rating, Foxtail, Giant” value came out at 90.

Still in this test, the particulars now being: Preemergence, 125 g ai/ha; 0 to 100 scale (0 no effect, 100 complete control).
Take `Cn1ncc(O)c(-n2nc(-c3ccc(Cl)cc3)cc2C2CC2)c1=O` [Compound 45]: the “Plant response rating, Foxtail, Giant” value amounted to 100.

For the compound `Cc1cc(-c2ccc(Cl)cc2)nn1-c1c(OC(=O)c2ccccc2Cl)cnn(C)c1=O` [Compound 38], the “Plant response rating, Foxtail, Giant” value was 100.

With `Cc1ccc(-c2ccc(Cl)cc2)cc1-c1c(O)cnn(C)c1=O` [Compound 46], the “Plant response rating, Foxtail, Giant” value amounted to 100.

With `CCCC(=O)Oc1cnn(C)c(=O)c1-n1nc(-c2ccc(Cl)cc2)cc1C` [Compound 56], the “Plant response rating, Foxtail, Giant” value is given as 100.
